Tested on: normal bank blood
Assay: In vitro pO2 and hemoglobin saturation of bank blood after oxygen or ozone/oxygen treatment
Conditions: 5 minutes after gas administration
Experimental: Ozone/oxygen was obtained from a pure (medical grade) oxygen by means of a medical ozone generator (Ozomed, a device manufactured in N.C.S.R., Havana, Cuba), at a concentration of 50 mg ozone/L oxygen (ca. 3.7%).
The ability of ozone/oxygen to in vitro raise pO2 of normal bank blood was compared to that of pure medical oxygen. To each one often paired (5+5) blood samples (5 mL each) contained in closed 10 ml vials, 2.5 mL of pure oxygen or ozone/oxygen mixture respectively were carefully bubbled through. Gasometric analyses were performed in test samples 5 minutes after gas administration and also in control untreated samples.

`O=O` [O2, oxygen] was tested, and the PO2 (5 mL blood, 2.5 mL gas bubbled through, n = 5, control 41 ± 1) was 73 ± 2, the “PO2 rise (%) (above control)” value (n = 5) was 78% and the HB saturation (n = 5, control 60 ± 1) was 86 ± 2.
